Data set [1] relates to LPS-activated primary microglia. As to the kind of experiment: LPS-induced expression of CtBP target genes in primary microglia (mRNA). As to conditions: for LPS-induced expression of the CtBP-controlled inflammatory genes: primary microglia from neonatal mouse brain, 20 μM peptide 2 h, then 200 ng/mL LPS 2 h, mRNA. The format is cell-based, mouse.
For data set [2], the system named is LPS-activated primary astrocytes. Kind of data set: LPS-induced expression of CtBP target genes in primary astrocytes (mRNA). The class given is cell-based. As to conditions: primary astrocytes from neonatal mouse brain, data not shown.
In data set [3] the test system is isolated mouse hippocampus. As to the kind of experiment: LPS-induced expression of CtBP target genes in isolated mouse hippocampus. As to conditions: 20 mM Pep1-E1As 2 h, then 200 ng/mL LPS 2 h; mRNA, FIG. 6C. As for the experimental part:
In another exemplary method, a CtBP inhibitor was analyzed for effects on CtBP target gene expression using methods disclosed herein. […] FIG. 6A represents primary microglia that were incubated with 20 μM Pep1-E1As for 2 hours followed by 2 hours of treatment with 200 ng/mL LPS. Bar graphs represent mean±SD of fold changes in mRNA levels. […] FIG. 6C represents isolated mouse hippocampus that were incubated with […] Pep1-E1As for 2 hours followed by 2 hours treatment with 200 ng/mL LPS. Bar graphs represent mean±SD of fold changes in mRNA levels.

The test system of data set [4] is imiquimod-induced psoriasis-like skin inflammation. Kind of data set: Imiquimod animal model of psoriasis-like skin inflammation. The format is in vivo, mice. The following applies: peptides topically daily from day 3 of imiquimod course; day 7.
For data set [5], the system named is repetitive mild TBI (two 0.5 J impacts 24 h apart). As to the kind of experiment: Repetitive mild TBI in mice (NSS, brain mRNA). The format is in vivo, mouse. As for the experimental part:
In another exemplary experiment, mice (n=4 per group) were subjected to a single mild TBI of 0.5 J dose at 0 h (sTBI) or two doses of 0.5 J mild TBI (rTBI) that were 24 h apart, at 0 h and 24 h. Animals with rTBI were separated into three. groups untreated, intraperitoneally injected with MTOB (860 mg/kg) or NSC95397 (1.5 mg/kg) at 1 h and 18 h. Animals were tested right before the two MTOB injection (0 h and 18 h) and then daily for neurobehavioral preformance. At the end point (72 h), the brain and circulating leukocytes were collected for molecular and immunostaining analyses.
FIGS. 9A-9D. Administration of MTOB and NSC95397 after a single mild TBI effectively subdues neuroinflammation and improves neurological outcome elicited by a second mild TBI. Mice (n=4 per group) were subjected to a single mild TBI of 0.5 J dose at 0 h (sTBI) or two doses of 0.5 J mild TBI, 24 h apart, at 0 h and 24 h (rTBI). The three rTBI groups were either untreated, treated with MTOB (860 mg/kg) or NSC95397 (1.5 mg/kg) at […] and 18 h. (9A) Neurobehavioral severity scale (NSS) analysis was performed at the indicated time points after the first TBI; the scores were shown as mean+SD. (9B) Bar graphs represent mean±SD of fold changes in mRNA levels in the brain. (9A) Experimental timeline. Mice received a single head impact of 0.5 J energy (1×TBI), or two 0.5 J impacts (2×TBI) spaced 24 h apart. […]

Another data set relates to BV2 cells. As to the kind of experiment: Expression of CtBP target genes in LPS-activated BV2 microglia cell line (RT-qPCR). The format is cell-based, mouse. As to conditions: siRNA 24 h, then LPS 200 ng/ml 6 h. As for the experimental part:
In one exemplary method, BV2 cells were treated with CtBP-specific siRNAs 24 hours prior to a 6-hour treatment with LPS. In this example, siCtBP1 (SEQ. NO.1) and siCtBP2 (SEQ. NO.2) were used. Relative mean mRNA levels (±SD) were determined by RT-qPCR, performed in triplicate and in two independent experiments.
(§1) Murine RAW264.7 (A) and BV2 (B) cells were transfected with siRNAs specific for CtBP1 and CtBP2 or scrambled control siRNAs for a period of 24 h, followed by LPS stimulation (200 ng/ml) for 6 h. Total RNA was extracted and analyzed by the RT-qPCR. Relative mRNA expression was normalized to that of ACTB and depicted as fold changes vs. scrambled siRNA transfected and non-stimulated control (Untreated). Data are presented as mean±SD. n=3; **p<0.01, ***p<0.001. FIG. 2C illustrates LPS-induced binding of CtBP1, CtBP2 and p300 to the IL1β, IL6, TNFα and S100A8 gene promoters. Chromatin fractions from control and LPS-treated BV2 cells were precipitated with antibodies specific to CtBP1, CtBP2 and p300. Bars represent fold changes of relative ChIP signals normalized to the respective controls.
(§2) In this exemplary study, cells were pretreated with 0.5 or 2.5 mM MTOB for 2 h or 18 h, then with 100 ng/mL LPS for an additional 2 h before being harvested for analysis, using RT-qPCR. Bar graphs represent mean±SD of fold changes in mRNA levels. […]
A general note: In qPCR the cycle at which signal appears reflects the starting amount.

Another data set has as its system RAW264.7 cells. As to the kind of experiment: Expression of CtBP target genes in LPS-activated RAW264.7 macrophage cell line (RT-qPCR). The format is cell-based, mouse. The following applies: siRNA 24 h, then LPS 200 ng/ml 6 h. As for the experimental part:
as §1, §2
In another exemplary method as illustrated in FIG. 11 relative CtBP1, CtBP2, IL6, S100A8, NRLP3, E-cadherin and Bax mRNA levels in RAW264.7 macrophages stimulated with 100 ng/ml of LPS for 6 h before post-treatment with MTOB for 2 h and at dosages of 0.5 mM and 2.5 mM MTOB sodium salt were analyzed. […]

In data set [6] the test system is DNFB-induced contact hypersensitivity (CHS). As to the kind of experiment: DNFB mouse model of contact hypersensitivity. The class given is in vivo. The following applies: peptides topically on the ear day 6 through day 9. An excerpt:
In another exemplary method, FIG. 14A-14B illustrate the effectiveness of additional CtBP inhibiting peptides in reducing skin inflammation caused by sensitization and elicitation with the hapten 2,4-dinitrofluorobenzene (DNFB). Peptides MH-3, MH-4, MH-6 and MH-7 were derived from MH-2, all containing a polyarginine sequence to promote membrane transduction, with variations at the linker or flanking sequence of the PIDLS motif. […] The thickness of the epidermis of the ear is indicated by the red square bracket. It is noted that the DNFB-induced CHS in mice is an established model for human allergic contact dermatitis, both of which are T cell-mediated delayed hypersensitivity responses. Mice (n=3) were sensitized on day 1 with […] of 0.5% DNFB on the abdomen surface and challenged on day 6 with […] of 0.5% DNFB on both sides of the ears to trigger T memory cell-mediated hypersensitivity reaction. Peptides ([…]) were topically administered on both sides of the ear 1 h after the DNFB application on day 6 through day 9. Ear swelling and reddening were examined daily till the end point (day 9).

In the case of “Pep1-E1AWT: SEQ ID NO. 5 GSHMKETWWETWWTEWSQPKKKRKVLEEPGQPLDLSCKRPRDYKDDDDK; FLAG-tagged Pep1 fusion with wild-type E1A sequence”, the “LPS-induced expression of the CtBP-controlled inflammatory genes” value in data set [1] is “inhibited LPS-induced expression”; in data set [1] (listed as Pep1-E1A), “strongly suppressed”; in data set [2] it was “inhibited LPS-induced expression”; in data set [2] (listed as Pep1-E1A), “strongly suppressed”. The “basal mRNA levels of CDH1 and BAX (genes repressed by CtBPs)” value in data set [1] (primary microglia, FIG. 6A right panel) is on record as “increased the basal mRNA levels”. Besides, the “expression of CtBP target gene in LPS-activated isolated mouse hippocampus” value in data set [3] was “inhibition of expression of CtBP target gene”. Besides, the “imiquimod-induced epidermal proliferation (H&E, epidermis thickness)” value in data set [4] is given as “reducing imiquimod-induced epidermal proliferation”.

Regarding `O=C1C(SCCO)=C(SCCO)C(=O)c2ccccc21` [NSC95397, 2,3-Bis[(2-hydroxyethyl)thio]-1,4-naphthoquinone], the “inflammatory gene induction (brain mRNA) after repetitive mild TBI” value in data set [5] (i.p. MTOB 860 mg/kg or NSC95397 1.5 mg/kg at 1 h and 18 h, 72 h after first injury) is recorded as “significantly reduced”. For the same compound, in data set [5] (i.p. MTOB 860 mg/kg or NSC95397 1.5 mg/kg at 1 h and 18 h after first injury), the “neurobehavioral defects (NSS) after repetitive mild TBI” value is “significantly reduced”.

In the case of “siRNAs specific for CtBP1 and CtBP2: simultaneous use of mouse siCtBP1 (SEQ. NO.1) and siCtBP2 (SEQ. NO.2) (chain 1 UCUUCCACAGUGUGACUGCGUUAUUUU; chain 2 GCCUUUGGAUUCAGCGUCAUAUUU; listed as RNA, chemistry not given here)”, the “mRNA expression of proinflammatory genes after knockdown” value in the data set on BV2 cells and in the data set with RAW264.7 cells was “suppresses mRNA expression of proinflammatory genes” throughout.

Take “MH-2: SEQ ID NO. 19 RRRRRRRRGGPIDLSKKA (18 aa) (Synthetic Sequence - MH-2)”: the “imiquimod-induced epidermal proliferation (H&E, epidermis thickness)” value in data set [4] is reported as “as effective in reducing imiquimod-induced epidermal proliferation as the prototype Pep1-E1A”. Besides, in data set [6], the “epidermal hyperproliferation of the ear” value is “reducing epidermal hyperproliferation and immunocyte infiltration”; the “immunocyte infiltration (CD45 immunohistochemistry)” value is “reducing epidermal hyperproliferation and immunocyte infiltration”.

Source of the values: patent US20220193016A1, “COMPOSITIONS, METHODS AND USES FOR TARGETING C-TERMINAL BINDING PROTEIN (CtBP) IN [sequence] BRAIN INJURY” (THE REGENTS OF THE UNIVERSITY OF COLORADO, A BODY CORPORATE, priority 2019, published 2022).
